Measured values as given in US20240261416A1, “SYNTHESIS OF NOVEL CEREBLON E3 LIGASE LIGANDS, COMPOUNDS FORMED THEREBY, AND PHARMACEUTICAL COMPOSITIONS CONTAINING THEM” (Wisconsin Alumni Research Foundation, priority 2023, published 2024).
Where a SMILES comes first, the peptide text is derived from it. The star is where a group is joined. Cbz = O=C(OCc1ccccc1)*

How the values were obtained:
[1] = target: T1, CRBN-DDB1 complex (Homo sapiens, UniProt Q96SW2); assay: fluorescence polarization (FP) assay, binding with the CRBN-DDB1 complex; conditions: single concentration of 1 μM; for binding to CRBN-DDB1 complex in FP assay (relative binding affinity): tested three times, conditions adjusted to around 84% of maximum signal for 1 μM lenalidomide
Procedure: All analogs were tested at a single concentration of 1 μM three times.

[2] = target: T1, CRBN-DDB1 complex; assay: as above
[3] = target: BRD4 in MV4; 11 cells (Homo sapiens, UniProt O60885); assay: Western blot of BRD4 in MV4; 11 cells (time course, dose response, mechanism); format: cell-based; conditions: for effect of 1 h pretreatment on BRD4 degradation induced by 13: pretreated 1 h, then 13 for 3 h
From the text: We next verified the mechanism of action of degrader 13 (FIGS. 8G-8H).

[4] = stability in human plasma (hP); format: in vitro ADME; conditions: after 4.0 h
From the text: (§1) Under acidic conditions, all compounds are very stable.

[5] = stability in phosphate buffer with different pHs; format: physicochemical; conditions: for PB7.4, percent compound remaining: phosphate buffer pH 7.4, after 24 h, 37° C.
[6] = stability in phosphate buffer with different pHs; format: physicochemical; conditions: phosphate buffer pH 1.0, after 24 h
From the text: as §1

[7] = stability in human liver microsomes (hLM); format: in vitro ADME; conditions: after 0.5 h
[8] = system: MV4; 11 cells; assay: AlamarBlue cell viability; format: cell-based, human; conditions: 72 h
Procedure: FIGS. 9A-9D. Functional studies of the PROTACs including anti-proliferation, apoptosis, G1 phase arrest, and reduced population in S phase. (FIG. 9A) AlamarBlue™ Cell Viability. […] (FIG. 9B) MV4; 11 cells were treated by indicated dosage of 13 for 48 h followed by flow cytofluorimetric cell cycle analysis. (FIGS. 9C and 9D) MV4; 11 cells were treated by indicated dosage of 13 for 48 h followed by flow cytofluorimetric apoptosis analyses.
AlamarBlue Cell Viability Cells were seeded in a 96-well plate at a density of 5000-10000 cells in 100 μl media per well and treated with DMSO control or test compounds at indicated doses. After incubated in CO2 incubator for 72 hours, cells were treated with 10 μL AlamarBlue solution ([…])). Fluorescence was measured in a plate reader with an excitation wavelength at 530-560 nm and emission wavelength at 590 nm. The fluorescence was normalized to the DMSO-treated cells, and the IC50 was calculated using GraphPad Prism 9 software.

[9] = phosphate buffer pH 8.8, after 24 h

T1 sequence (Q96SW2 whole entry): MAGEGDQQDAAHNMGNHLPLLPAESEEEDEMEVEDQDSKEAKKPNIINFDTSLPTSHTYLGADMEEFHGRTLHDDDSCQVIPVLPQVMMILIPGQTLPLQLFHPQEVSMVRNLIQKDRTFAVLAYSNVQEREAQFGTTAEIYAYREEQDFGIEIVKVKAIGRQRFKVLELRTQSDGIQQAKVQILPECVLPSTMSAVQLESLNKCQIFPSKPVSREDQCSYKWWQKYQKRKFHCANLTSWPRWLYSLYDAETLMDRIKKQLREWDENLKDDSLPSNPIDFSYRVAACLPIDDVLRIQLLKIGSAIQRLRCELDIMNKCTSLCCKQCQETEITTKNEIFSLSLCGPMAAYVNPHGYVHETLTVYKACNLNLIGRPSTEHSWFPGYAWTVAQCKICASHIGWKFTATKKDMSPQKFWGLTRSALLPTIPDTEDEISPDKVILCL
T1 sequence (Q16531 2-1140 partner limits assumed): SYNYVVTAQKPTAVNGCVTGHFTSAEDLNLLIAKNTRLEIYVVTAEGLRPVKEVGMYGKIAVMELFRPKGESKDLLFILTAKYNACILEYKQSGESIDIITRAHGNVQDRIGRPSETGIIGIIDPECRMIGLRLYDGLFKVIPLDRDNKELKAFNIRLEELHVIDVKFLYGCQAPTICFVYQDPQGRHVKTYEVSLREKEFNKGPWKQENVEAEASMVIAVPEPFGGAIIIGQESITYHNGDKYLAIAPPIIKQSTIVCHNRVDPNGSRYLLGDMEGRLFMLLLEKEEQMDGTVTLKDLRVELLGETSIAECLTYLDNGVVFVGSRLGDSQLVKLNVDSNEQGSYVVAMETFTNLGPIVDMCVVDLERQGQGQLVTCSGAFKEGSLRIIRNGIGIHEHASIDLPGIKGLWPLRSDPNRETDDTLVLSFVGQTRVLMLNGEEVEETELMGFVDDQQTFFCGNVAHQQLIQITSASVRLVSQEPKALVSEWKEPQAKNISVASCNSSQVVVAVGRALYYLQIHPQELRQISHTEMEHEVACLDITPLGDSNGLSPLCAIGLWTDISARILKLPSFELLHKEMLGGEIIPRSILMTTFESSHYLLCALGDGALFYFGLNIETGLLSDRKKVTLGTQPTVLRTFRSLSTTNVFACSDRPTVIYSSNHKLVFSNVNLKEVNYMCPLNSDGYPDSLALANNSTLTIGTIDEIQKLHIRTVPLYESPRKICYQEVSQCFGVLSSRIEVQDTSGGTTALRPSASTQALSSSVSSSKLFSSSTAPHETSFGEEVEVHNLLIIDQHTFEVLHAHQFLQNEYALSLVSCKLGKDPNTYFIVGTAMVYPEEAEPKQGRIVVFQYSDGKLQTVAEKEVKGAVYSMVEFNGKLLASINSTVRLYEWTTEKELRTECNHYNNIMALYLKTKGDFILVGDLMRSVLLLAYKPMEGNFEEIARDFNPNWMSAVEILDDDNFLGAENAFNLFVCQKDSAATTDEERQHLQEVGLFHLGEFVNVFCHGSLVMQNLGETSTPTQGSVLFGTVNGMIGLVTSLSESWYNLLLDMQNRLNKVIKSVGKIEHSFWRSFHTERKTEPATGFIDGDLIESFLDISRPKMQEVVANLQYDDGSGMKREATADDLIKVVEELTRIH

With `Cc1ccc(Nc2ccccc2)cc1N1CCC(=O)NC1=O` [Compound 16B] the “binding to CRBN-DDB1 complex in FP assay, in words” value (“binding … in words” for short) [1] was “remain relatively high binding affinity”.
With `O=Cc1ccc(Oc2cccc(N3CCC(=O)NC3=O)c2)cc1` [Compound 15B] the “binding to CRBN-DDB1 complex in FP assay (relative binding affinity)” value (shortened to “binding … (relative binding affinity)”) [1] was 33%.
For `Cc1ccccc1N1CCC(=O)NC1=O` [Compound 3B, 1-(o-tolyl)dihydropyrimidine-2,4(1H,3H)-dione], the “increase of affinity by ortho-Me relative to parent PDHU 2” value ([2]; FP assay Kd) was “about 2.5 times” and the “binding … (relative binding affinity)” value [1] was 35%.
With `NS(=O)(=O)OC[C@@H]1C[C@@H](n2ccc3c(N[C@H]4CCc5ccccc54)ncnc32)C[C@@H]1O` [MLN4924, reference compound] the “effect of 1 h pretreatment on BRD4 degradation induced by 13” value (“effect of 1 h pretreatment” for short) [3] was “abolished the BRD4 degradation induced by 13”.
In the case of `CC(C)(C)OC(=O)NCC#Cc1cccc(N2CCC(=O)NC2=O)c1` [Compound 4F, tert-butyl (3-(3-(2,4-dioxotetrahydropyrimidin-1(2H)-yl)phenyl)prop-2-yn-1-yl)carbamate], the “binding … (relative binding affinity)” value [1] is reported as 56%.
With `O=C1CCN(c2ccc(O)cc2)C(=O)N1` [Compound 5A, 1-(4-hydroxyphenyl)dihydropyrimidine-2,4(1H,3H)-dione] the “binding … in words” value [1] was “did not improve the binding as much as those on the meta-positions” and the “binding … (relative binding affinity)” value [1] was 38%.
For `Cc1c(Oc2ccc(C=O)cc2)cccc1N1CCC(=O)NC1=O` [Compound 15C], the “binding … (relative binding affinity)” value [1] was 21%.
With `O=C1CCN(c2ccccc2Cl)C(=O)N1` [Compound 3E, 1-(2-chlorophenyl)dihydropyrimidine-2,4(1H,3H)-dione] the “binding … (relative binding affinity)” value [1] was 36%.
With `COC(=O)c1cccc(Nc2ccc(C)c(N3CCC(=O)NC3=O)c2)c1` [Compound 16A] the “binding … in words” value [1] was “remain relatively high binding affinity”.
In the case of `Cc1c(C#CCNC(=O)OC(C)(C)C)cccc1N1CCC(=O)NC1=O` [Compound 6F, tert-butyl (3-(3-(2,4-dioxotetrahydropyrimidin-1(2H)-yl)-2-methylphenyl)prop-2-yn-1-yl)carbamate], the “hP, percent compound remaining” value [4] is reported as 97%, the “PB7.4, percent compound remaining” value [5] is reported as >99% and the “PB8.8, percent compound remaining” value [5, 9] is reported as 93%. The “PB1.0, percent compound remaining” value [6] was >99% and the “hLM, percent compound remaining” value [7] was 87%.
In the case of `CCNC(=O)COc1cccc(N2CCC(=O)NC2=O)c1C` [Compound 10, 2-(3-(2,4-dioxotetrahydropyrimidin-1(2H)-yl)-2-methylphenoxy)-N-ethylacetamide], the “PB7.4, percent compound remaining” value [5] is reported as >99%, the “PB8.8, percent compound remaining” value [5, 9] is reported as 95% and the “PB1.0, percent compound remaining” value [6] is reported as >99%. For the same compound, the “hLM, percent compound remaining” value [7] was 100%.
In the case of `Nc1cccc2c1CN(C1CCC(=O)NC1=O)C2=O` (centres unmarked) [Lenalidomide, lenalidomide, reference compound], the “hP, percent compound remaining” value [4] is reported as 62%, the “PB7.4, percent compound remaining” value [5] is reported as 39% and the “PB8.8, percent compound remaining” value ([5]; phosphate buffer pH 8.8, after 2 h) is reported as 20%. For the same compound, the “PB8.8, percent compound remaining” value [5, 9] was 0%, the “PB1.0, percent compound remaining” value [6] was >99% and the “hLM, percent compound remaining” value [7] was 89%.
In the case of `COc1cccc(N2CCC(=O)NC2=O)c1` [Compound 4C, 1-(3-methoxyphenyl)dihydropyrimidine-2,4(1H,3H)-dione], the “binding … (relative binding affinity)” value [1] is reported as 33%.
In the case of `Cc1ccc(Oc2ccccc2)cc1N1CCC(=O)NC1=O` [Compound 15D], the “binding … in words” value [1] is reported as “slightly weaker than 15A”.
With `CC(C)(C)OC(=O)COc1cccc(N2CCC(=O)NC2=O)c1` [Compound 4K, tert-butyl 2-(3-(2,4-dioxotetrahydropyrimidin-1(2H)-yl)phenoxy)acetate] the “binding … (relative binding affinity)” value [1] was 44%.
For `CC(C)(C)OC(=O)COc1ccc(N2CCC(=O)NC2=O)cc1` [Compound 5K, tert-butyl 2-(4-(2,4-dioxotetrahydropyrimidin-1(2H)-yl)phenoxy)acetate], the “binding … in words” value [1] was “did not improve the binding as much as those on the meta-positions”.
With `Cc1ccc(O)cc1N1CCC(=O)NC1=O` [Compound 7A, 1-(5-hydroxy-2-methylphenyl)dihydropyrimidine-2,4(1H,3H)-dione] the “binding … (relative binding affinity)” value [1] was 81%.
In the case of `O=C1CCN(c2ccccc2O)C(=O)N1` [Compound 3A, 1-(2-hydroxyphenyl)dihydropyrimidine-2,4(1H,3H)-dione], the “binding … in words” value [1] is reported as “almost completely lost the binding affinity”.
With `CCc1ccccc1N1CCC(=O)NC1=O` [Compound 3D, 1-(2-ethylphenyl)dihydropyrimidine-2,4(1H,3H)-dione] the “binding … (relative binding affinity)” value [1] was 29%.
With `Cc1ccc(Oc2ccc(C=O)cc2)cc1N1CCC(=O)NC1=O` [Compound 15A] the Kd ([2]; FP assay) was 170 nM and the “binding … (relative binding affinity)” value [1] was 70%.
In the case of `COc1ccccc1N1CCC(=O)NC1=O` [Compound 3C, 1-(2-methoxyphenyl)dihydropyrimidine-2,4(1H,3H)-dione], the “binding … in words” value [1] is reported as “decreased the binding”.
In the case of `Cc1sc2c(c1C)C(c1ccc(Cl)cc1)=N[C@@H](CC(=O)OC(C)(C)C)c1nnc(C)n1-2` [JQ1, reference compound], the “anti-proliferation activity, in words” value [8] is reported as “weaker anti-proliferation activity than 13, but higher activity than compound 13NT”.
For `O=C1CCN(c2cccc(O)c2)C(=O)N1` [Compound 4A, 1-(3-hydroxyphenyl)dihydropyrimidine-2,4(1H,3H)-dione], the “binding … (relative binding affinity)” value [1] was 57%.
In the case of `CC(C)C[C@@H](C=O)NC(=O)[C@H](CC(C)C)NC(=O)[C@H](CC(C)C)NC(=O)OCc1ccccc1` [MG132, reference compound] (Cbz-Leu-Leu-Leu-aldehyde), the “effect of 1 h pretreatment” value [3] is reported as “abolished the BRD4 degradation induced by 13”.
For `CC(=O)NCCC#Cc1cccc(N2CCC(=O)NC2=O)c1C` [Compound 11, N-(4-(3-(2,4-dioxotetrahydropyrimidin-1(2H)-yl)-2-methylphenyl)but-3-yn-1-yl)acetamide], the “PB7.4, percent compound remaining” value [5] was >99%, the “PB8.8, percent compound remaining” value [5, 9] was 90% and the “PB1.0, percent compound remaining” value [6] was >99%. The “hLM, percent compound remaining” value [7] was 90%.
For `Cc1c(OCC(=O)N2CCCCC2)cccc1N1CCC(=O)NC1=O` [Compound 9, 1-(2-methyl-3-(2-oxo-2-(piperidin-1-yl)ethoxy)phenyl)dihydropyrimidine-2,4(1H,3H)-dione], the “anti-proliferation activity, in words” value [8] was “did not show any anti-proliferation activity at up to 100 μM”, the “effect of 1 h pretreatment” value [3] was “abolished the BRD4 degradation induced by 13” and the “PB7.4, percent compound remaining” value [5] was >99%. The “PB8.8, percent compound remaining” value [5, 9] was 95%, the “PB1.0, percent compound remaining” value [6] was >99% and the “hLM, percent compound remaining” value [7] was 85%.
In the case of `Cc1sc2c(c1C)C(c1ccc(Cl)cc1)=N[C@@H](CC(=O)NC1CCN(C(=O)COc3cccc(N4CCC(=O)N(C)C4=O)c3C)CC1)c1nnc(C)n1-2` [Compound 13NT, (S)-2-(4-(4-chlorophenyl)-2,3,9-trimethyl-6H-thieno[3,2-f][1,2,4]triazolo[4,3-a][1,4]diazepin-6-yl)-N-(1-(2-(2-methyl-3-(3-methyl-2,4-dioxotetrahydropyrimidin-1(2H)-yl)phenoxy)acetyl)piperidin-4-yl)acetamide], the “BRD4 degradation activity, in words” value ([3]; several concentrations, 24 h) is reported as “No degradation activity of BRD4 was observed”.
